Holding throughout (format): biochemical
One experiment addresses hck (Homo sapiens, UniProt P08631). Description: hck kinase assay (ELISA or Alphascreen). The note with it: read-out: hck inhibition of enzyme activity. The method, boiled down: (§1)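 PTK domain ~1.5 μg; 50 mM HEPES pH 7.5, 10 mM MgCl2, 150 mM NaCl; ATP 10 μM-1 mM; biotinylated peptide 5 μM final. Read-out: avidin-capture ELISA with PY20 or Alphascreen pTyr acceptor/streptavidin donor beads.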
In general terms: ELISA stands for enzyme-linked immunosorbent assay.

A further experiment has as its target fes (Homo sapiens, UniProt P07332). Briefly: fes kinase assay (ELISA or Alphascreen). To be noted: read-out: fes inhibition of enzyme activity. In outline:
as §1

A further experiment concerns the target T1, Zap70 (Homo sapiens, UniProt P43403).
T1 sequence (P43403 338-600 limits assumed): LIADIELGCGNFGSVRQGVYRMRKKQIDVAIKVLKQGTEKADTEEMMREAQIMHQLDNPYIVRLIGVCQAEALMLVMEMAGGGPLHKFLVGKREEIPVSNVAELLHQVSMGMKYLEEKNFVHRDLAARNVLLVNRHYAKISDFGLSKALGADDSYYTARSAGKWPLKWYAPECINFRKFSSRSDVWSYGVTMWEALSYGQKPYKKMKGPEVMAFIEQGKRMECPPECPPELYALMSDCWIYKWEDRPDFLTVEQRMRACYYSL
Description: Zap70 kinase assay (ELISA or Alphascreen). The note with it: read-out: Zap70 inhibition of enzyme activity. In outline: as §1

The target in another experiment is T2, abl (Homo sapiens, UniProt P00519).
T2 sequence (P00519 242-493 limits assumed): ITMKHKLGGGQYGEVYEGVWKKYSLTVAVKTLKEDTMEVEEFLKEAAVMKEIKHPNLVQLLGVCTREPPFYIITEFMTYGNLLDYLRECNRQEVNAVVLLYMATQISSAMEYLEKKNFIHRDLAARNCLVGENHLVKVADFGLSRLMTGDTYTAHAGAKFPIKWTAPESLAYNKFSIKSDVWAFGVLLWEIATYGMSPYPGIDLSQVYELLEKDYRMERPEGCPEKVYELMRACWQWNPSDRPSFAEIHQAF
Briefly: abl kinase assay (ELISA or Alphascreen). The note with it: read-out: abl inhibition of enzyme activity. The method, boiled down:
as §1

In another experiment the target is T3, human JAK3 (Homo sapiens, UniProt P52333).
T3 construct: The kinase domain of human JAK3 was amplified from U937mRNA; His tag (from the pFastBac HTb vector) (N); made in house; host or cells: baculovirus; Sf9 for virus, High Five insect cells for production
Description: JAK3 kinase assay (ELISA or Alphascreen). To be noted: read-out: Jak3 inhibition of enzyme activity. The method, boiled down:
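Read-out: anti-phosphotyrosine detection of a 5 μM biotin-peptide substrate, via PY20-peroxidase ELISA or Alphascreen beads. Enzyme was nickel-purified recombinant JAK3 kinase domain (~1.5 μg), with ATP at 10 μM-1 mM, pH 7.5 HEPES/MgCl2/NaCl.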

A further experiment has as its target T4, fms (Homo sapiens, UniProt P07333).
T4 sequence (P07333 582-910 limits assumed): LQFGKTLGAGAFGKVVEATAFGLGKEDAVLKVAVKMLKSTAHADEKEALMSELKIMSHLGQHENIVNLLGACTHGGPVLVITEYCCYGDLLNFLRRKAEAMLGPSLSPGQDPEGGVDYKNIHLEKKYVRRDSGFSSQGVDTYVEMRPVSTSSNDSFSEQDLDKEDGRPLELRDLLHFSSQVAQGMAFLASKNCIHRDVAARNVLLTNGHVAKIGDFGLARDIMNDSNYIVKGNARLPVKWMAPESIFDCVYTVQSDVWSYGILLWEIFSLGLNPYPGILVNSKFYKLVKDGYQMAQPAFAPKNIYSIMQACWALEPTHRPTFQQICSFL
Briefly: fms kinase assay (ELISA or Alphascreen). To be noted: read-out: fms inhibition of enzyme activity. The method, boiled down: as §1

A further experiment concerns the target T5, human JAK2 (Homo sapiens, UniProt O60674).
T5 construct: The kinase domain of human JAK2 was amplified from U937mRNA; His tag (from the pFastBac HTc vector) (N); made in house; host or cells: baculovirus; Sf9 for virus, High Five insect cells for production
Description: JAK2 kinase assay (ELISA or Alphascreen). The note with it: read-out: Jak2 inhibition of enzyme activity. In outline: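 His-tagged human JAK2 kinase domain from baculovirus-infected insect cells, ~1.5 μg per assay, in 50 mM HEPES pH 7.5, 10 mM MgCl2, 150 mM NaCl, with 10 μM–1 mM ATP and 5 μM biotinylated peptide substrate. Phosphotyrosine detected by PY20 ELISA or AlphaScreen.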

Among the data in patent US8030336B2, “Nicotinamide-based kinase inhibitors” (YM Biosciences Australia Pty Ltd, priority 2002, dated 2011) are inhibition values, retold here.

A value given as a limit tells only on which side of the number the result lay.

T3 sequence (P52333 822-1111 limits assumed): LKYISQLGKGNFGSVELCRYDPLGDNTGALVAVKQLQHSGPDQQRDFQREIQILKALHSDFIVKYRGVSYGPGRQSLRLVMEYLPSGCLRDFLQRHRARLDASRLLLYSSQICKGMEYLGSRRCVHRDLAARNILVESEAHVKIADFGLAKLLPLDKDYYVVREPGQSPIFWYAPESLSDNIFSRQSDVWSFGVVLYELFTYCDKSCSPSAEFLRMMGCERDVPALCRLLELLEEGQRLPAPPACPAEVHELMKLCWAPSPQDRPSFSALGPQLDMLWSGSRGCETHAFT
Chain of hck (P08631 262-515 limits assumed, species assumed): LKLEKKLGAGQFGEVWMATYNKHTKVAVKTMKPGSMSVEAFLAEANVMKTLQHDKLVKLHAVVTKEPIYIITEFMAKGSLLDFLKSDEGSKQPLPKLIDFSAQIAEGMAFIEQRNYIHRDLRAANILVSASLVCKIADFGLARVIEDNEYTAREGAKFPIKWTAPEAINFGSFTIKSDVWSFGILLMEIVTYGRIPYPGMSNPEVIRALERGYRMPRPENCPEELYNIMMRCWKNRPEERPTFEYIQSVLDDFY
Chain of fes (P07332 561-822 limits assumed, species assumed): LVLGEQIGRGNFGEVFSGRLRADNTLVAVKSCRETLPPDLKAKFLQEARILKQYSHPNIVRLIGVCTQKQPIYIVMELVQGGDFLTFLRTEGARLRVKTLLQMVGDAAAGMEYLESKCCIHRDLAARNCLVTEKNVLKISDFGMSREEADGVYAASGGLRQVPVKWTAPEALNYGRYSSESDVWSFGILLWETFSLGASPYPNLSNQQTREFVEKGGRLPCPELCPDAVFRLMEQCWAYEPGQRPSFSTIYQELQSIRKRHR
T5 sequence (O60674 849-1124 limits assumed): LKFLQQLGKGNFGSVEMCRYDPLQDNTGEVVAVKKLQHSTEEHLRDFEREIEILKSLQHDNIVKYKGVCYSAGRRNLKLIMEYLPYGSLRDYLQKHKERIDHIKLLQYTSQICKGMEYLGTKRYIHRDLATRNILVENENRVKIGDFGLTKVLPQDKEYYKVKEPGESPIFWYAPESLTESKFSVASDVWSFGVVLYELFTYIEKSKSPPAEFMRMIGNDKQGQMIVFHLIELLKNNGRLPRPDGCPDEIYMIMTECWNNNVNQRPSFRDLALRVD

As a reminder, the inhibition is the percentage by which the read-out fell short of the control. Take `COc1cc(-c2cncc(C(=O)Nc3ccccc3C)c2)cc(OC)c1OC`: the inhibition at 10 µM at hck is not below 50%; on fes, less than 50%; at Zap70, less than 50%; at abl, not below 50%; at human JAK3, less than 50%; on fms, not below 50%. In addition, at human JAK2, the inhibition at 10 µM is less than 50%.

For the compound `COc1cc(-c2cncc(C(=O)OC(C)(C)C)c2)ccc1O`, the inhibition at 10 µM at hck was less than 50%; at fes, less than 50%; at Zap70, less than 50%; on abl, less than 50%; at human JAK3, less than 50%; on fms, not below 50%. In addition, the inhibition at 10 µM at human JAK2 is less than 50%.

Take `COc1ccc(CNC(=O)c2cncc(-c3cc(C)c(O)c(C)c3)c2)cc1`: the inhibition at 10 µM at hck, at fes, on Zap70, on abl, on human JAK3 and on fms was less than 50% each time.

Consider `Cc1cc(F)ccc1NC(=O)c1cncc(-c2cc(C)c(O)c(C)c2)c1`, for which the inhibition at 10 µM was not below 50% on hck; less than 50% on fes; not below 50% on abl; less than 50% at human JAK3; not below 50% on fms; less than 50% at human JAK2.

As to `COc1cc(-c2cncc(C(=O)N[C@H](C)c3ccccc3)c2)c(Cl)c(OC)c1OC`, the inhibition at 10 µM on hck, on fes, at abl, on human JAK3, at fms and at human JAK2 was less than 50% throughout.

On to `COc1cc(-c2cncc(C(=O)Nc3cc(C)ccc3C)c2)c(Cl)c(OC)c1OC`, for which the inhibition at 10 µM on hck was not below 50%; at fes, less than 50%; at abl, less than 50%; at human JAK3, less than 50%; at fms, not below 50%; on human JAK2, less than 50%.

As to `COc1cc(-c2cncc(C(=O)Nc3ccccc3C)c2)c(Cl)c(OC)c1OC`, the inhibition at 10 µM at hck is not below 50%; at fes, less than 50%; at Zap70, less than 50%; at abl it was less than 50%; at human JAK3, less than 50%; at fms it was not below 50%. The inhibition at 10 µM at human JAK2 is less than 50%.

As to `CC(C)C(CO)NC(=O)c1cncc(-c2ccc3c(c2)OCO3)c1` (stereo not drawn), the inhibition at 10 µM on hck, on fes, on Zap70, at abl, at human JAK3 and on fms was less than 50% throughout.

With `Cc1ccc(F)cc1NC(=O)c1cncc(-c2ccc3c(c2)OCO3)c1`, the inhibition at 10 µM on hck, at fes, on Zap70, on abl, on human JAK3 and on fms was less than 50% in each case. The inhibition at 10 µM at human JAK2 is less than 50%.

In the case of `O=C(Nc1ccccc1)c1cncc(-c2cccs2)c1`, the inhibition at 10 µM was less than 50% at hck; not below 50% at fes; less than 50% at Zap70; less than 50% at abl; less than 50% on human JAK3; less than 50% on fms. Further, on human JAK2, the inhibition at 10 µM is less than 50%.

On to `CC(C)NC(=O)c1cncc(-c2cccs2)c1`, for which the inhibition at 10 µM at hck is less than 50%; at fes, not below 50%; at Zap70, less than 50%; on abl, less than 50%; at human JAK3, less than 50%; at fms it was not below 50%. The inhibition at 10 µM at human JAK2 is less than 50%.

`Cc1ccc(CNC(=O)c2cncc(-c3cccs3)c2)cc1`: the inhibition at 10 µM at hck was less than 50%; on fes, not below 50%; on Zap70, less than 50%; on abl, less than 50%; on human JAK3, less than 50%; at fms it was less than 50%.

Turning to `O=C(Nc1ccc(N2CCOCC2)cc1)c1cncc(-c2cccs2)c1`, the inhibition at 10 µM on hck is less than 50%; on fes, not below 50%; on Zap70, less than 50%; on abl it was less than 50%; on human JAK3, less than 50%; on fms it was less than 50%. At human JAK2, the inhibition at 10 µM was less than 50%.

Regarding `Cc1ccc(F)cc1NC(=O)c1cncc(-c2cccs2)c1`, the inhibition at 10 µM at hck is not below 50%; on fes, less than 50%; on Zap70, less than 50%; on abl it was less than 50%; at human JAK3, less than 50%; on fms, not below 50%. The inhibition at 10 µM on human JAK2 was less than 50%.

For the compound `CN(Cc1ccccc1)C(=O)c1cncc(-c2cccs2)c1`, the inhibition at 10 µM is less than 50% at hck; not below 50% at fes; less than 50% at Zap70; less than 50% on abl; less than 50% at human JAK3; less than 50% on fms. Moreover, the inhibition at 10 µM at human JAK2 was less than 50%.

For the compound `CC(CCc1ccccc1)NC(=O)c1cncc(-c2cccs2)c1` (stereo not drawn), the inhibition at 10 µM on hck was less than 50%; on fes, not below 50%; on Zap70, less than 50%; on abl, less than 50%; on human JAK3, less than 50%; on fms it was less than 50%. Also, at human JAK2, the inhibition at 10 µM was less than 50%.

Turning to `CC(NC(=O)c1cncc(-c2cccs2)c1)c1ccc(F)cc1` (stereo not drawn), the inhibition at 10 µM is less than 50% at hck; not below 50% on fes; less than 50% on Zap70; less than 50% at abl; less than 50% on human JAK3; less than 50% on fms. Moreover, the inhibition at 10 µM at human JAK2 was less than 50%.

For `CC(C)C(CO)NC(=O)c1cncc(-c2cccnc2)c1` (stereo not drawn), the inhibition at 10 µM at hck, on fes, at Zap70, on abl, at human JAK3 and on fms was less than 50% in each case.

Take `O=C(Nc1ccccc1)c1cncc(-c2cccnc2)c1`: the inhibition at 10 µM on hck is less than 50%; on fes it was less than 50%; at Zap70, not below 50%; at abl it was less than 50%; at human JAK3, less than 50%; at fms, less than 50%. The inhibition at 10 µM on human JAK2 was less than 50%.

In the case of `COc1cc(-c2cncc(C(=O)Nc3cc(F)ccc3C)c2)ccc1O`, the inhibition at 10 µM on hck was not below 50%; on fes, less than 50%; at abl, not below 50%; on human JAK3 it was less than 50%; at fms it was not below 50%; on human JAK2, less than 50%.

Turning to `CC(NC(=O)c1cncc(-c2cccnc2)c1)c1ccc(F)cc1` (stereo not drawn), the inhibition at 10 µM on hck, on fes, on Zap70, at abl, at human JAK3 and at fms was less than 50% each time.
